Values belong to the compound of their own block, whether it stands above or below them.
What was measured:
[1] = test system: neonatal rat small intestinal epithelial cells; settings: ref Booth et al., 1995; Leeper et al., 1998; McDonald and Henning, 1992; cited from earlier work
[2] = test system: human iPSC (Tic)-derived definitive endoderm cells; assay: Intestinal progenitor cell differentiation; format: cell-based; settings: 4 days
[3] = test system: human iPSC (Tic)-derived definitive endoderm cells; assay: CDX2 protein expression by western blotting; format: cell-based; settings: 4 days treatment
[4] = test system: human iPSC-derived intestinal progenitor cells; assay: Percentage of CDX2-positive cells by FACS analysis; format: cell-based; settings: LY2090314-treated cells
[5] = test system: small intestinal epithelial cells; settings: ref Booth et al., 1995; Leeper et al., 1998; McDonald and Henning, 1992; cited from earlier work
[6] = test system: CYP3A4
[7] = biological target: T1, PEPT1 (Homo sapiens, UniProt P46059); assay: Peptide-uptake analysis of D-Ala-Leu-Lys-AMCA in hiPS-SIECs; format: cell-based; settings: 100 μM captopril, 25 μM D-Ala-Leu-Lys-AMCA for 4 hr
T1 sequence (P46059 1-708): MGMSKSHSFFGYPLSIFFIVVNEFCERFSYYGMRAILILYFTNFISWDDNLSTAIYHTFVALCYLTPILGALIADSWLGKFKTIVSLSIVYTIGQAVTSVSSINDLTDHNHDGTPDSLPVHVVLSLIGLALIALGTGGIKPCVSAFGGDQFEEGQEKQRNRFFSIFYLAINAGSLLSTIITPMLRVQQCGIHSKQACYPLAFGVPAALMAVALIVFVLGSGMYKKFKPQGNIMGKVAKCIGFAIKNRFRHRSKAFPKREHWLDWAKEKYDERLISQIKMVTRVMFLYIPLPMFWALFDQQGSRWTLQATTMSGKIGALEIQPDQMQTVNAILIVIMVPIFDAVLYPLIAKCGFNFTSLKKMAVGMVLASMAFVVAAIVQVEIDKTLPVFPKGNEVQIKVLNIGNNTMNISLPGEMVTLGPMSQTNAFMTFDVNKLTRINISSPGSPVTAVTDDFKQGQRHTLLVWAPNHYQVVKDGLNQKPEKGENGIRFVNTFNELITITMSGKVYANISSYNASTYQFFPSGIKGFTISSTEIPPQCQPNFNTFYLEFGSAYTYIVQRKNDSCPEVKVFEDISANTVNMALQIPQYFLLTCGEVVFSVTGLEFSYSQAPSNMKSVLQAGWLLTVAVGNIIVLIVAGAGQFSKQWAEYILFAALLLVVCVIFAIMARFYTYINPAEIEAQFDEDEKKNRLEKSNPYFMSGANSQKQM

[8] = biological target: T1, PEPT1; assay: PEPT1 permeability test with glycylsarcosine across hiPS-SIECs monolayer; format: in vitro ADME; settings: apical to basolateral, 100 μM captopril
[9] = test system: hiPS-SIECs monolayer; assay: TEER measurement of hiPS-SIECs monolayer; format: cell-based, human; settings: 10 mM C10, hiPS-SIECs monolayer
[10] = test system: hiPS-SIECs monolayer; assay: LY and FD4 permeability tests across hiPS-SIECs monolayer; settings: treatment with C10, hiPS-SIECs monolayer
[11] = biological target: T2, CES2 (Homo sapiens, UniProt O00748); assay: CES2 activity in hiPS-SIECs with fluorescein diacetate substrate; settings: 1 mM loperamide, 10 μM fluorescein diacetate substrate
T2 sequence (O00748 27-559): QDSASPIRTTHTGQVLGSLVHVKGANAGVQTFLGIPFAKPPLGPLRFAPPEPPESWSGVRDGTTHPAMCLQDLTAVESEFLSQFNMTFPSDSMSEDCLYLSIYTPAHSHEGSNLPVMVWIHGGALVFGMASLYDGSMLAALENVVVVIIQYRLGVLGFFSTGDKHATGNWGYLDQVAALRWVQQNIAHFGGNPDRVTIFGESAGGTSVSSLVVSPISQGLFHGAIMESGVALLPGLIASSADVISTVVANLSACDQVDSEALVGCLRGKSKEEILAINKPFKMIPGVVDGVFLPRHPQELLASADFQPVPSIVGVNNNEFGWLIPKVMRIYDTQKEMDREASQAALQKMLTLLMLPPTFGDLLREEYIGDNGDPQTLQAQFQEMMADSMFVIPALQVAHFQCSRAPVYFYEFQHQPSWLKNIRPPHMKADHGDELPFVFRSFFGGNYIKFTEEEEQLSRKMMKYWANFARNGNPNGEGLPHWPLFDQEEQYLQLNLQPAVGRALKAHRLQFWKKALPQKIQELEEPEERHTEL

[12] = test system: JAK/STAT signals; settings: ref Liu et al., 2011; cited from earlier work
[13] = 20 nM, compared with definitive endoderm cells (DECs)

Compound: C[C@@H]1C[C@H]2[C@@H]3CCC4=CC(=O)C=C[C@]4(C)[C@@]3(F)[C@@H](O)C[C@]2(C)[C@@]1(O)C(=O)CO [dexamethasone]
maturation in neonatal rat small intestinal epithelial cells [1]: promotes

Compound: O=C1NC(=O)C(c2cnc3ccccn23)=C1c1cn2c3c(cc(F)cc13)CN(C(=O)N1CCCCC1)CC2 [LY2090314]
expression level of hepatic progenitor marker AFP [2, 13]: lower
expression level of intestinal progenitor cell marker CDX2 [2, 13]: increased
expression level of pancreatic progenitor cell marker PDX1 [2, 13]: lower
expression levels of CDX2, concentration dependence ([2]; 1-20 nM, relative to DMSO-treated cells): increased in a concentration-dependent manner
CDX2 protein expression level [3]: increased
percentage of CDX2-positive cells (FACS) [4]: approximately 50%

Compound: IGF-1: insulin-like growth factor 1, used at 20 ng/mL
proliferation of small intestinal epithelial cells [5]: promotes

CYP3A4 expression levels [6]: increased
Compound: C=C1/C(=C\C=C2/CCC[C@]3(C)[C@@H]([C@H](C)CCCC(C)(C)O)CC[C@@H]23)C[C@@H](O)C[C@@H]1O [VD3, 1α,25-dihydroxyvitamin D3]

uptake of D-Ala-Leu-Lys-AMCA in presence of inhibitor [7]: inhibited
Papp value of glycylsarcosine [8]: significantly decreased
Compound: C[C@H](CS)C(=O)N1CCC[C@H]1C(=O)O [captopril]

FD4 apparent membrane permeability coefficient (Papp) [10]: increased
LY apparent membrane permeability coefficient (Papp) [10]: increased
Compound: CCCCCCCCCC(=O)O [C10, capric acid]
TEER value [9]: significantly decreased

CES2 activity in the hiPS-SIECs [11]: significantly inhibited
Compound: CN(C)C(=O)C(CCN1CCC(O)(c2ccc(Cl)cc2)CC1)(c1ccccc1)c1ccccc1 [loperamide]

Compound: O=C1Nc2cc(Br)ccc2/C1=C1/Nc2ccccc2/C1=N\O [BIO, (2′Z,3′E)-6-bromoindirubin-3′-oxime]
effect on JAK/STAT signals (off-target) [12]: inhibition
